# Reference: the supplement of paper PMC10307832
# How the values were obtained:
# Experiment in all cases: relative viability (nuclei count vs DMSO), 5 days (fraction); higher = more cells survive
# NCI-H1975 = test system: NCI-H1975
# Method in brief: (§1)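 Nuclei were stained with Hoechst during a one-step fixation (final 0.05% Triton X-100, 1% formaldehyde, 1 ug/ml Hoechst) carried out 5 days after dosing, then counted on 4× images. The cells, lung cancer lines in 1536-well plates, had been dosed by pin tool the day after seeding with one drug alone or a fixed anchor-drug dose plus five library-drug doses (not always all listed) in √10 steps. Relative viability is the nuclei count in treated wells divided by that in vehicle wells, and each value is the median of duplicate plates.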
# NCI-H661 = test system: NCI-H661
# Method in brief: as §1
# NCI-H1437 = test system: NCI-H1437
# Method in brief: as §1
# NCI-H2405 = test system: NCI-H2405
# Method in brief: as §1
# HCC-827 = test system: HCC-827
# Method in brief: as §1
# HCC-78 = test system: HCC-78
# Method in brief: as §1
# NCI-H2085 = test system: NCI-H2085
# Method in brief: as §1
# SK-LU-1 = test system: SK-LU-1
# Method in brief: as §1
# NCI-H358 = test system: NCI-H358
# Method in brief: as §1
# COR-L23 = test system: COR-L23
# Method in brief: as §1
# NCI-H1792 = test system: NCI-H1792
# Method in brief: as §1
# UMC-11 = test system: UMC-11
# Method in brief: as §1
# NCI-H1395 = test system: NCI-H1395
# Method in brief: as §1
# NCI-H727 = test system: NCI-H727
# Method in brief: as §1
# HCC-15 = test system: HCC-15
# Method in brief: as §1
# SK-MES-1 = test system: SK-MES-1
# Method in brief: as §1
# COR-L 105 = test system: COR-L 105
# Method in brief: as §1
# NCI-H1944 = test system: NCI-H1944
# Method in brief: as §1
# HCC-366 = test system: HCC-366
# Method in brief: as §1
# EPLC-272H = test system: EPLC-272H
# Method in brief: as §1
# NCI-H2023 = test system: NCI-H2023
# Method in brief: as §1
# HARA = test system: HARA
# Method in brief: as §1
# HCC-44 = test system: HCC-44
# Method in brief: as §1
smiles,measurement,setting,value
CCCCCCCCCCCC1=C(O)C(=O)C=C(O)C1=O [Embelin] + CS(=O)(=O)CCNCc1ccc(-c2ccc3ncnc(Nc4ccc(OCc5cccc(F)c5)c(Cl)c4)c3c2)o1 [Lapatinib] (partner 2 µM),relative viability,NCI-H1975; first compound 0.08 µM,0.807
same,relative viability,NCI-H1975; first compound 0.8 µM,0.951
same,relative viability,NCI-H1975; first compound 2.53 µM,1.09
same,relative viability,NCI-H1975; first compound 8 µM,0.872
same,relative viability,NCI-H661; first compound 0.08 µM,0.467
same,relative viability,NCI-H661; first compound 0.8 µM,0.596
same,relative viability,NCI-H661; first compound 2.53 µM,0.545
same,relative viability,NCI-H661; first compound 8 µM,0.48
same,relative viability,NCI-H1437; first compound 0.08 µM,0.784
same,relative viability,NCI-H1437; first compound 0.8 µM,0.938
same,relative viability,NCI-H1437; first compound 2.53 µM,1.04
same,relative viability,NCI-H1437; first compound 8 µM,0.466
same,relative viability,NCI-H2405; first compound 0.08 µM,1.16
same,relative viability,NCI-H2405; first compound 0.8 µM,1.48
same,relative viability,NCI-H2405; first compound 2.53 µM,1.06
same,relative viability,NCI-H2405; first compound 8 µM,1.02
same,relative viability,HCC-827; first compound 0.08 µM,0.157
same,relative viability,HCC-827; first compound 0.8 µM,0.176
same,relative viability,HCC-827; first compound 2.53 µM,0.179
same,relative viability,HCC-827; first compound 8 µM,0.197
same,relative viability,HCC-78; first compound 0.08 µM,0.767
same,relative viability,HCC-78; first compound 0.8 µM,0.703
same,relative viability,HCC-78; first compound 2.53 µM,0.796
same,relative viability,HCC-78; first compound 8 µM,0.616
same,relative viability,NCI-H2085; first compound 0.08 µM,0.743
same,relative viability,NCI-H2085; first compound 0.8 µM,0.92
same,relative viability,NCI-H2085; first compound 2.53 µM,0.778
same,relative viability,NCI-H2085; first compound 8 µM,0.731
same,relative viability,SK-LU-1; first compound 0.08 µM,1
same,relative viability,SK-LU-1; first compound 0.8 µM,1.15
same,relative viability,SK-LU-1; first compound 2.53 µM,0.9
same,relative viability,SK-LU-1; first compound 8 µM,0.863
same,relative viability,NCI-H358; first compound 0.08 µM,0.452
same,relative viability,NCI-H358; first compound 0.8 µM,0.525
same,relative viability,NCI-H358; first compound 2.53 µM,0.47
same,relative viability,NCI-H358; first compound 8 µM,0.384
same,relative viability,COR-L23; first compound 0.08 µM,0.927
same,relative viability,COR-L23; first compound 0.8 µM,0.966
same,relative viability,COR-L23; first compound 2.53 µM,1.34
same,relative viability,COR-L23; first compound 8 µM,1.09
same,relative viability,NCI-H1792; first compound 0.08 µM,0.917
same,relative viability,NCI-H1792; first compound 0.8 µM,0.877
same,relative viability,NCI-H1792; first compound 2.53 µM,1.09
same,relative viability,NCI-H1792; first compound 8 µM,1.06
same,relative viability,UMC-11; first compound 0.08 µM,1.12
same,relative viability,UMC-11; first compound 0.8 µM,1.17
same,relative viability,UMC-11; first compound 2.53 µM,1.08
same,relative viability,UMC-11; first compound 8 µM,0.877
same,relative viability,NCI-H1395; first compound 0.08 µM,1.11
same,relative viability,NCI-H1395; first compound 0.8 µM,1.27
same,relative viability,NCI-H1395; first compound 2.53 µM,0.99
same,relative viability,NCI-H1395; first compound 8 µM,0.754
same,relative viability,NCI-H727; first compound 0.08 µM,0.737
same,relative viability,NCI-H727; first compound 0.8 µM,0.753
same,relative viability,NCI-H727; first compound 2.53 µM,1.13
same,relative viability,NCI-H727; first compound 8 µM,0.738
same,relative viability,HCC-15; first compound 0.08 µM,0.835
same,relative viability,HCC-15; first compound 0.8 µM,0.92
same,relative viability,HCC-15; first compound 2.53 µM,0.944
same,relative viability,HCC-15; first compound 8 µM,0.795
same,relative viability,SK-MES-1; first compound 0.08 µM,0.496
same,relative viability,SK-MES-1; first compound 0.8 µM,0.496
same,relative viability,SK-MES-1; first compound 2.53 µM,0.516
same,relative viability,SK-MES-1; first compound 8 µM,0.477
same,relative viability,COR-L 105; first compound 0.08 µM,0.356
same,relative viability,COR-L 105; first compound 0.8 µM,0.436
same,relative viability,COR-L 105; first compound 2.53 µM,0.384
same,relative viability,COR-L 105; first compound 8 µM,0.391
same,relative viability,NCI-H1944; first compound 0.08 µM,0.774
same,relative viability,NCI-H1944; first compound 0.8 µM,0.908
same,relative viability,NCI-H1944; first compound 2.53 µM,0.841
same,relative viability,NCI-H1944; first compound 8 µM,0.65
same,relative viability,HCC-366; first compound 0.08 µM,1.08
same,relative viability,HCC-366; first compound 0.8 µM,1.11
same,relative viability,HCC-366; first compound 2.53 µM,1.21
same,relative viability,HCC-366; first compound 8 µM,1.32
same,relative viability,EPLC-272H; first compound 0.08 µM,0.899
same,relative viability,EPLC-272H; first compound 0.8 µM,1.38
same,relative viability,EPLC-272H; first compound 2.53 µM,1.01
same,relative viability,EPLC-272H; first compound 8 µM,0.816
same,relative viability,NCI-H2023; first compound 0.08 µM,0.837
same,relative viability,NCI-H2023; first compound 0.8 µM,0.979
same,relative viability,NCI-H2023; first compound 2.53 µM,0.838
same,relative viability,NCI-H2023; first compound 8 µM,0.477
same,relative viability,HARA; first compound 0.08 µM,0.665
same,relative viability,HARA; first compound 0.8 µM,0.961
same,relative viability,HARA; first compound 2.53 µM,0.895
same,relative viability,HARA; first compound 8 µM,0.755
same,relative viability,HCC-44; first compound 0.08 µM,1.03
same,relative viability,HCC-44; first compound 0.8 µM,1.02
same,relative viability,HCC-44; first compound 2.53 µM,1.15
same,relative viability,HCC-44; first compound 8 µM,0.908
